Among the test systems are LXFL 529; M19-MEL; DMS-273; SNB-78; XF498; RXF 631; T47D; MDA-N; BT-549.
Experiment in all cases: DTP human tumour cell line panel, 48 h

The results in this text go back to ChEMBL document CHEMBL1201862, “PubChem BioAssay data set” (2004).

Structures are written as SMILES.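 The compound was tested at five concentrations on cells cultured in 96-well plates, with a 48-hour exposure period. GI50: concentration for 50% inhibition of growth.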 Active and inactive are the calls of the source. Cut-off read from the data, not from the text of the source: active = GI50 up to about 1.1 µM and inactive = higher. Some results are limits rather than exact numbers.

In the case of `COC(=O)/C(=C\c1ccc(N(CCC#N)CCC#N)cc1)NC(=O)c1cc([N+](=O)[O-])ccc1Cl`, the GI50 in the test on LXFL 529, in the test with M19-MEL, in the test on DMS-273 and with SNB-78 was > 100 µM (inactive) throughout.
For the compound `Cc1cc2c(cc1C)[n+]([O-])c(C(=O)CC(=O)C(=O)Nc1c(C(C)C)cccc1C(C)C)c(C)[n+]2[O-]`, the GI50 with LXFL 529, with XF498, in the test on M19-MEL, with DMS-273 and with SNB-78 was > 100 µM (inactive) each time.
As for `O=C1C2C3C=CC(C2C(=O)N1CN1CCSCC1)C1C2C(=O)N(CN4CCSCC4)C(=O)C2C31` (stereo not drawn), the GI50 (usually the concentration at which growth is held to half of that of the control) is > 100 µM (inactive) in the test on RXF 631; > 100 µM (inactive) in the test on LXFL 529; > 100 µM (inactive) in the test with XF498; > 100 µM (inactive) in the test on M19-MEL; > 43.5 µM (inactive) with DMS-273; > 100 µM (inactive) with SNB-78.
Regarding `Cc1nc2ccccc2c(=O)n1/N=C(\N=N\c1ccc(Cl)cc1)c1ccc(N(C)C)cc1`, the GI50 with LXFL 529 is 47.8 µM (inactive); with XF498, 14.6 µM (inactive); in the test with M19-MEL it was > 100 µM (inactive); with DMS-273, 60.1 µM (inactive).
As for `Cc1ccc(NC(=O)CC/C(CC(=O)C(C)(C)C)=N/NC(=O)C[N+](C)(C)C)cc1C`, the GI50 in the test with LXFL 529, in the test on M19-MEL and in the test with SNB-78 was > 100 µM (inactive) throughout.
Consider `CCN(CC)CCCC(C)Nc1ccnc2ccc3nn(C)nc3c12` (stereo not drawn), for which the GI50 in the test with LXFL 529 is 55.5 µM (inactive); in the test with M19-MEL, 49 µM (inactive); in the test with DMS-273 it was 26.4 µM (inactive); in the test with SNB-78 it was 52.7 µM (inactive).
`C=C(CO)CC(/C=C(\C)CC/C=C(\C)CCl)OC(C)=O` (stereo not drawn): the GI50 in the test with LXFL 529, in the test with XF498, with M19-MEL, in the test on DMS-273 and with SNB-78 was > 100 µM (inactive) each time.
With `CC(=O)OC1C(COC(N)=O)OC(n2c(-c3ccc(C)cc3)cc(-c3ccccc3)c(C#N)c2=O)C(OC(C)=O)C1OC(C)=O` (stereo not drawn), the GI50 in the test with RXF 631, in the test with LXFL 529, in the test on M19-MEL, with DMS-273 and with SNB-78 was > 100 µM (inactive) throughout.
Take `O=C(/C=C/c1ccc(Cl)c(Cl)c1)c1ccc(F)cc1`: the GI50 in the test on RXF 631 is 50 µM (inactive); with LXFL 529, 14.6 µM (inactive); with M19-MEL it was 18.2 µM (inactive); in the test on DMS-273 it was 12.5 µM (inactive); with SNB-78, 20.7 µM (inactive).
For `Nc1c(C(=O)Nc2ccccc2)[n+]([O-])c2ccccc2[n+]1[O-]`, the GI50 in the test with LXFL 529 is 14.4 µM (inactive); in the test on XF498, 16.6 µM (inactive); in the test on M19-MEL it was 15 µM (inactive); with DMS-273, 20.6 µM (inactive); in the test on SNB-78, 16.9 µM (inactive).
Taken in the same sequence, the figures for `CCCCCCNC(=O)CCN(C(=O)O)S(=O)(=O)c1ccc(NC(=O)c2ccccc2)cc1` were > 95.9 µM (inactive), > 100 µM (inactive), > 49.3 µM (inactive), > 41 µM (inactive) and > 100 µM (inactive).
Turning to `O=C(Cc1ccccc1)N/N=C(/c1nc2ccc([N+](=O)[O-])cc2nc1O)C(O)c1ccco1` (stereo not drawn), the GI50 with LXFL 529 was 87.9 µM (inactive); in the test with XF498, > 100 µM (inactive); in the test on M19-MEL, > 100 µM (inactive); in the test with SNB-78 it was > 100 µM (inactive).
As to `C=CCCCCCCCCCP(=O)(c1ccccc1)c1ccc2c(c1)OCCOCCOCCOCCO2` (stereo not drawn), the GI50 with XF498 is 18.7 µM (inactive); in the test with M19-MEL it was 18.4 µM (inactive); with DMS-273, 15.1 µM (inactive); in the test on SNB-78, 19.1 µM (inactive).
Turning to `Clc1ccc(CCN2CCOCC2)c(Cl)c1`, the GI50 with RXF 631, in the test on XF498, with M19-MEL and in the test with SNB-78 was > 100 µM (inactive) each time.
Take `COC(=O)C12C(=O)O[C@H](C)C1(O)C(C)C(=O)N2C` (stereo partly drawn): the values for the GI50 in the test on XF498, with M19-MEL and in the test with SNB-78 were 0.662 µM (active), > 100 µM (inactive) and > 100 µM (inactive), respectively.
On to `C/C(=N\NC(=S)N1CCC(N2CCCCC2)CC1)c1ccccn1`, for which the GI50 with T47D is 1.39 µM (inactive); with LXFL 529, 0.828 µM (active); with XF498 it was 7 µM (inactive); with M19-MEL it was 3.71 µM (inactive); in the test on DMS-273, 2.81 µM (inactive); in the test with SNB-78 it was 11.5 µM (inactive). In the test with MDA-N, the GI50 was 2.49 µM (inactive).
Take `O=C(Cn1ccnc1[N+](=O)[O-])NCc1ccc(F)cc1`: the GI50 in the test on RXF 631, in the test with LXFL 529, in the test with XF498, in the test with M19-MEL and in the test with DMS-273 was > 100 µM (inactive) in each case.
Regarding `CC1=C(C(=O)CC(=O)C(=O)Nc2ccccc2)Sc2ccccc2N1`, the GI50 in the test on RXF 631, with LXFL 529, in the test with XF498, in the test with M19-MEL and in the test with SNB-78 was > 100 µM (inactive) in each case.
As for `CC1=NN(C(=O)Nc2ccc(Cl)cc2)C(=O)C2CCC(=O)N12` (stereo not drawn), the GI50 was 2.65 µM (inactive) with LXFL 529; > 100 µM (inactive) in the test with XF498; > 100 µM (inactive) in the test on M19-MEL; 47.3 µM (inactive) with DMS-273; > 100 µM (inactive) with SNB-78.
In the case of `Cc1cc(NC(=O)NC(=O)c2ccccc2NC(=O)CN)ccc1Oc1ncc(Br)cn1`, the GI50 with T47D was 12.3 µM (inactive); in the test on LXFL 529, 1.73 µM (inactive); with XF498, 13.9 µM (inactive); with DMS-273, 0.313 µM (active); in the test with MDA-N, 0.105 µM (active).
With `CC(=O)OC1C2CCC1C1C2C2(Cl)C(Cl)=C(Cl)C1(Cl)C2(Cl)Cl` (stereo not drawn), the GI50 is 12.5 µM (inactive) in the test on LXFL 529; 11 µM (inactive) in the test on XF498; 13.3 µM (inactive) in the test on M19-MEL; 12.2 µM (inactive) with DMS-273; 17.4 µM (inactive) with SNB-78.
Regarding `CN(C)CC1CC/C(=C\c2ccc(Cl)c(Cl)c2)C1=O` (stereo not drawn), the GI50 in the test on LXFL 529 is 13.2 µM (inactive); in the test with XF498, > 46.8 µM (inactive); in the test with M19-MEL, 29.4 µM (inactive); with DMS-273, 28.8 µM (inactive); with SNB-78, 31.5 µM (inactive).
For `O=C(Nc1ccn(C2CC(O)C(CO)O2)c(=O)n1)c1ccccc1` (stereo not drawn), the GI50 in the test on T47D, with BT-549 and with MDA-N was > 100 µM (inactive) in each case.
For `CC1=C[C@@H](C)C[C@]2(C)CC[C@H](O2)[C@]23CC[C@](C)(C[C@H](O2)[C@@H]2O[C@@](C)(CC2=O)[C@@H](O)[C@H]2CC[C@@]4(CCC[C@@H](O4)[C@H](C)C(=O)O[C@H]4C[C@H]([C@]5(O)OCC[C@H](C)[C@@H]5O)O[C@H]4C=C1)O2)O3`, the GI50 with T47D was 0.0632 µM (active); in the test with BT-549 it was 0.0024 µM (active); in the test with MDA-N it was 0.0233 µM (active).
For `Nc1ccc(-c2nc3cc(F)ccc3s2)cc1CO`, the 50% growth inhibitory concentration (GI50) was 0.0116 µM (active) in the test on T47D, 21.2 µM (inactive) in the test on BT-549 and > 100 µM (inactive) in the test on MDA-N.
For `C1CN2CCN3CCN4CCN1[PH]243`, the GI50 in the test with LXFL 529, in the test on XF498, in the test on M19-MEL, with DMS-273 and in the test with SNB-78 was > 100 µM (inactive) each time.
Regarding `Cc1ccc2nc(C(=O)O)c(=O)[nH]c2c1`, the GI50 in the test with T47D, in the test on BT-549 and in the test with MDA-N was > 100 µM (inactive) each time.
In the case of `c1ccc2c(Nc3ncco3)cccc2c1`, the GI50 in the test with T47D, in the test with BT-549 and with MDA-N was > 10 µM (inactive) in each case.
`CCCCCCCCCCCCCCCCCCNc1nc(=O)n(C2CC(O)C(COP(=O)(O)O)O2)cc1F` (stereo not drawn): the GI50 is 42.9 µM (inactive) in the test on T47D, > 100 µM (inactive) in the test on BT-549 and > 100 µM (inactive) in the test with MDA-N.
Regarding `OC12c3ccccc3C1CCCCC2N1CCCC1` (stereo not drawn), the GI50 with LXFL 529, in the test with M19-MEL, with DMS-273 and in the test with SNB-78 was > 100 µM (inactive) throughout.
For `Cc1cc(N(CCC#N)CCC#N)ccc1/C=C(/NC(=O)/C=C/c1ccccc1)C(N)=O`, the GI50 in the test with LXFL 529 is > 100 µM (inactive); in the test on XF498, 39.7 µM (inactive); in the test with M19-MEL it was > 100 µM (inactive); in the test with DMS-273 it was > 100 µM (inactive); in the test with SNB-78, 97.1 µM (inactive).
As to `CCOc1ccc(NC(=O)C2=C(C)NC(C)=C(C(=O)Nc3ccc(OCC)cc3)C2c2ccc(O)c(OC)c2)cc1`, the GI50 was 53.5 µM (inactive) with RXF 631; 67.3 µM (inactive) in the test on LXFL 529; 18.5 µM (inactive) in the test on XF498; > 100 µM (inactive) in the test with M19-MEL; 44.1 µM (inactive) in the test on SNB-78.
Turning to `O=C1OCCC1(Cc1ccc(Cl)cc1)Cc1ccc(Cl)cc1`, the GI50 was > 100 µM (inactive) in the test on LXFL 529, 15.9 µM (inactive) in the test on XF498, > 100 µM (inactive) in the test with M19-MEL and 42.3 µM (inactive) in the test with SNB-78.
As to `CSc1ncc2c(n1)-c1ccccc1OC2N1CCOCC1` (stereo not drawn), the figures for the GI50 in the test on T47D, in the test with BT-549 and in the test with MDA-N were 24.1 µM (inactive), 49.5 µM (inactive) and > 100 µM (inactive), respectively.
For `CP1(=O)CCCCC1`, the GI50 in the test on LXFL 529, in the test on XF498, in the test on M19-MEL, in the test on DMS-273 and in the test on SNB-78 was > 100 µM (inactive) in each case.
For `Cc1c2ccccc2c(C)n2c1nc1ccccc12`, the GI50 was 17.5 µM (inactive) with T47D, 15.1 µM (inactive) in the test with BT-549 and 10.6 µM (inactive) in the test with MDA-N.
For the compound `OCC(O)C(O)C(O)c1nn(-c2ccccc2)c2nc3cc(Cl)c(Cl)cc3nc12` (stereo not drawn), the GI50 in the test on LXFL 529 was 57.5 µM (inactive); in the test with XF498 it was 23.4 µM (inactive); with M19-MEL, 49.1 µM (inactive); with DMS-273, 39.8 µM (inactive); with SNB-78, 54.1 µM (inactive).
For the compound `N=c1oc2ccccc2cc1-c1nc2ccccc2c(=O)[nH]1`, the results for the GI50 in the test with T47D, in the test with BT-549 and in the test on MDA-N were > 100 µM (inactive), 23.8 µM (inactive) and > 100 µM (inactive), respectively.
